Source: patent publication US20230406843A1, “Progranulin Modulators and Methods of Using the Same” (ARKUDA THERAPEUTICS, priority 2020, published 2023)

System: progranulin
Experiment: Progranulin induction cellular assay (ELISA of secreted mouse PGRN)
Type: cell-based
Conditions: progranulin induction assay; mouse pMG, primary cortical neurons and BV-2 cell lines named, cell type not given; ELISA-based readout; read-out: EC50
Protocol: Cellular Assays: Progranulin induction assay. To measure the efficacy of compounds, a progranulin induction cellular assay in mouse primary microglia (pMG), primary cortical neurons, and BV-2 cell lines is used. BV-2 cells are split the day before plating into a 96 well plate format at approximately 80%. Cells should be plated the day before and allowed for 1 hour attachment period and for 16 hour incubation. Levels of progranulin secreted into the cell culture medium or retained in the cell lysate can be quantified using an ELISA-based readout and measurement of secreted mouse PGRN in the medium was assessed by the methodology published by Ghidoni et al. 2012. Standard ELISA kits to measure PGRN are available from vendors such as Adipogen, R&D, and Biovendor.
Table B below presents the results of a progranulin induction assay as described above.

EC50 | SMILES
166 nM | N[C@H]1CCO[C@@H](C(=O)N2CCc3ccccc3[C@@H]2c2ccc(F)cc2)C1 (single isomer, unassigned) [Compound 5080]
188 nM | N[C@@H]1CCO[C@H](C(=O)N2CCc3ccccc3[C@@H]2c2ccc(F)cc2)C1 (single isomer, unassigned) [Compound 5081]
44 nM | CO[C@H]1C[C@H](C(=O)N2CCc3ccccc3[C@@H]2c2ccc(F)cc2)OC[C@H]1N (single isomer, unassigned) [Compound 5082]
162 nM | O=C([C@H]1CNCCCO1)N1CCc2ccccc2[C@@H]1c1ccc(F)cc1 (single isomer, unassigned) [Compound 5090]
408 nM | O=C([C@@H]1CNCCCO1)N1CCc2ccccc2[C@@H]1c1ccc(F)cc1 (single isomer, unassigned) [Compound 5091]
372 nM | C[C@]1(C(=O)N2CCc3ccccc3[C@@H]2c2ccc(F)cc2)C[C@@H](N)CCO1 (single isomer, unassigned) [Compound 5235]
393 nM | C[C@]1(C(=O)N2CCc3ccccc3[C@@H]2c2ccc(F)cc2)C[C@H](N)CCO1 (single isomer, unassigned) [Compound 5236]
665 nM | C[C@@]1(C(=O)N2CCc3ccccc3[C@@H]2c2ccc(F)cc2)C[C@H](N)CCO1 (single isomer, unassigned) [Compound 5237]
105 nM | C[C@@]1(C(=O)N2CCc3ccccc3[C@@H]2c2ccc(F)cc2)C[C@@H](N)CCO1 (single isomer, unassigned) [Compound 5238]
100 nM | O=C([C@H]1OCCNC[C@H]1O)N1CCc2ccccc2[C@@H]1c1ccc(F)cc1 (single isomer, unassigned) [Compound 5246]
78 nM | O=C([C@H]1CCNCCO1)N1CCc2ccccc2[C@@H]1c1ccc(F)cc1F (single isomer, unassigned) [Compound 5263]
48 nM | O=C([C@@H]1CCNCCO1)N1CCc2ccccc2[C@@H]1c1ccc(F)cc1F (single isomer, unassigned) [Compound 5264]
352 nM | O=C([C@@H]1OCCNC[C@@H]1F)N1CCc2ccccc2[C@@H]1c1ccc(F)cc1 (single isomer, unassigned) [Compound 5418]
15 nM | O=C([C@H]1C[C@@H]2NCCS[C@H]2CO1)N1CCc2ccccc2[C@@H]1c1ccc(F)cc1 (single isomer, unassigned) [Compound 5534]
28 nM | O=C([C@H]1C[C@@H]2NCC(CO)O[C@H]2CO1)N1CCc2ccccc2[C@@H]1c1ccc(F)cc1 (single isomer, unassigned) [Compound 5535]
3 nM | CC(=O)N1CCN[C@H]2C[C@H](C(=O)N3CCc4ccccc4[C@@H]3c3ccc(F)cc3)OC[C@@H]21 (single isomer, unassigned) [Compound 5543]
19 nM | CCC(=O)N1CCN[C@H]2C[C@H](C(=O)N3CCc4ccccc4[C@@H]3c3ccc(F)cc3)OC[C@@H]21 (single isomer, unassigned) [Compound 5544]
4 nM | O=C([C@H]1C[C@@H]2NCCN(CC(F)(F)F)[C@H]2CO1)N1CCc2ccccc2[C@@H]1c1ccc(F)cc1 (single isomer, unassigned) [Compound 5545]
62 nM | C[S@@+2]([NH-])([O-])[C@H]1CO[C@@H](C(=O)N2CCc3ccccc3[C@@H]2c2ccc(F)cc2)C[C@@H]1N (single isomer, unassigned) [Compound 5547]
71 nM | C[S@](=N)(=O)[C@H]1CO[C@@H](C(=O)N2CCc3ccccc3[C@@H]2c2ccc(F)cc2)C[C@@H]1N (single isomer, unassigned) [Compound 5548]
30 nM | CC[S@@+2]([NH-])([O-])[C@H]1CO[C@@H](C(=O)N2CCc3ccccc3[C@@H]2c2ccc(F)cc2)C[C@@H]1N (single isomer, unassigned) [Compound 5549]

EC50 | SMILES
17 nM | CC[S@](=N)(=O)[C@H]1CO[C@@H](C(=O)N2CCc3ccccc3[C@@H]2c2ccc(F)cc2)C[C@@H]1N (single isomer, unassigned) [Compound 5550]
27 nM | CC[S@+2]([O-])([N-]C)[C@H]1CO[C@@H](C(=O)N2CCc3ccccc3[C@@H]2c2ccc(F)cc2)C[C@@H]1N (single isomer, unassigned) [Compound 5551]
11 nM | CC[S@@](=O)(=NC)[C@H]1CO[C@@H](C(=O)N2CCc3ccccc3[C@@H]2c2ccc(F)cc2)C[C@@H]1N (single isomer, unassigned) [Compound 5552]
29 nM | C[N-][S@@+2](C)([O-])[C@H]1CO[C@@H](C(=O)N2CCc3ccccc3[C@@H]2c2ccc(F)cc2)C[C@@H]1N (single isomer, unassigned) [Compound 5555]
70 nM | C[N-][S@+2](C)([O-])[C@H]1CO[C@@H](C(=O)N2CCc3ccccc3[C@@H]2c2ccc(F)cc2)C[C@@H]1N (single isomer, unassigned) [Compound 5556]
523 nM | CC[N-][S@@+2](C)([O-])[C@H]1CO[C@@H](C(=O)N2CCc3ccccc3[C@@H]2c2ccc(F)cc2)C[C@@H]1N (single isomer, unassigned) [Compound 5557]
312 nM | CC[N-][S@+2](C)([O-])[C@H]1CO[C@@H](C(=O)N2CCc3ccccc3[C@@H]2c2ccc(F)cc2)C[C@@H]1N (single isomer, unassigned) [Compound 5558]
369 nM | NCC1COC(C(=O)N2CCc3ccccc3[C@@H]2c2ccc(F)cc2)C1 (stereo in doubt) [Compound 5008, ((2S,4S)-4-(aminomethyl)tetrahydrofuran-2-yl)((S)-1-(4-fluorophenyl)-3,4-dihydroisoquinolin-2(1H)-yl)methanone]
370 nM | NCC1COC(C(=O)N2CCc3ccccc3[C@@H]2c2ccc(F)cc2)C1 (stereo in doubt) [Compound 5009, ((2S,4R)-4-(aminomethyl)tetrahydrofuran-2-yl)((S)-1-(4-fluorophenyl)-3,4-dihydroisoquinolin-2(1H)-yl)methanone]
573 nM | N[C@H]1COC(C(=O)N2CCc3ccccc3[C@@H]2c2ccc(F)cc2)C1 (stereo in doubt) [Compound 5010, ((2S,4R)-4-aminotetrahydrofuran-2-yl)((S)-1-(4-fluorophenyl)-3,4-dihydroisoquinolin-2(1H)-yl)methanone]
1660 nM | N[C@@H]1COC(C(=O)N2CCc3ccccc3[C@@H]2c2ccc(F)cc2)C1 (stereo in doubt) [Compound 5011, ((2S,4S)-4-aminotetrahydrofuran-2-yl)((S)-1-(4-fluorophenyl)-3,4-dihydroisoquinolin-2(1H)-yl)methanone]
125 nM | N[C@H]1COC(C(=O)N2CCc3ccccc3[C@@H]2c2ccc(F)cc2)C1 (stereo in doubt) [Compound 5012, ((2R,4R)-4-aminotetrahydrofuran-2-yl)((S)-1-(4-fluorophenyl)-3,4-dihydroisoquinolin-2(1H)-yl)methanone]
323 nM | N[C@@H]1COC(C(=O)N2CCc3ccccc3[C@@H]2c2ccc(F)cc2)C1 (stereo in doubt) [Compound 5013, ((2R,4S)-4-aminotetrahydrofuran-2-yl)((S)-1-(4-fluorophenyl)-3,4-dihydroisoquinolin-2(1H)-yl)methanone]
> 10000 nM | NC1CCC(C(=O)N2CCc3ccccc3[C@@H]2c2ccc(F)cc2F)OC1 (stereo in doubt) [Compound 5018, ((2R,5S)-5-aminotetrahydro-2H-pyran-2-yl)((R)-1-(2,4-difluorophenyl)-3,4-dihydroisoquinolin-2(1H)-yl)methanone]
1060 nM | N[C@@]12CC[C@@](C(=O)N3CCc4ccccc4C3c3ccc(F)cc3)(C1)OC2 (stereo in doubt) [Compound 5020, (4-amino-2-oxabicyclo[2.2.1]heptan-1-yl)((S)-1-(4-fluorophenyl)-3,4-dihydroisoquinolin-2(1H)-yl)methanone]
4160 nM | N[C@@]12CC[C@@](C(=O)N3CCc4ccccc4[C@H]3c3ccc(F)cc3)(C1)OC2 (stereo in doubt) [Compound 5022, (4-amino-2-oxabicyclo[2.2.1]heptan-1-yl)((S)-1-(4-fluorophenyl)-3,4-dihydroisoquinolin-2(1H)-yl)methanone]
210 nM | NCC1(O)CCO[C@@H](C(=O)N2CCc3ccccc3[C@@H]2c2ccc(F)cc2)C1 (stereo in doubt) [Compound 5540, ((2R,4R)-4-(aminomethyl)-4-hydroxytetrahydro-2H-pyran-2-yl)((S)-1-(4-fluorophenyl)-3,4-dihydroisoquinolin-2(1H)-yl)methanone]
410 nM | NC[C@@H]1CC[C@H](C(=O)N2CCc3ccccc3[C@@H]2c2ccc(F)cc2)O1 [Compound 5000, ((2R,5S)-5-(aminomethyl)tetrahydrofuran-2-yl)((S)-1-(4-fluorophenyl)-3,4-dihydroisoquinolin-2(1H)-yl)methanone]
244 nM | NC[C@H]1CC[C@@H](C(=O)N2CCc3ccccc3[C@@H]2c2ccc(F)cc2)O1 [Compound 5001, ((2S,5R)-5-(aminomethyl)tetrahydrofuran-2-yl)((S)-1-(4-fluorophenyl)-3,4-dihydroisoquinolin-2(1H)-yl)methanone]
278 nM | NC[C@H]1CC[C@H](C(=O)N2CCc3ccccc3[C@@H]2c2ccc(F)cc2)O1 [Compound 5002, ((2R,5R)-5-(aminomethyl)tetrahydrofuran-2-yl)((S)-1-(4-fluorophenyl)-3,4-dihydroisoquinolin-2(1H)-yl)methanone]

SMILES | EC50
N=[S@]1(=O)CCN[C@H]2C[C@H](C(=O)N3CCc4ccccc4[C@@H]3c3ccc(F)cc3)OC[C@@H]21 (single isomer, unassigned) [Compound 5554] | 4860 nM
